Experiments:
Type in all cases: biochemical
[1] = target: PI3Kδ (Homo sapiens, UniProt O00329); experiment: PI3Kδ enzyme activity inhibition IC50 evaluation assay (ADP-Glo Kinase Assay); conditions: ATP 25 μM, PIP2 50 μg/mL, 1 hour room temperature, read-out: PI3K-δ IC50
Experimental: Effec Example 1 IC50 evaluation assay for PI3Kα, PI3Kδ, PI3Kβ and PI3Kγ enzyme activity inhibition
The experiment was performed using the ADP-Glo Kinase Assay kit, following the instructions. The following buffer solutions were prepared: 50 mM HEPES, pH 7.5, 3 mM MgCl2, 1 mM EGTA, 100 mM NaCl, 0.03% CHAPS, 2 mM DTT. The test compound samples were dissolved in DMSO and added to the screening system at a certain starting concentration such as 10 μM, 3-fold dilution, while setting up both DMSO control and no kinase control. The optimal concentrations of PI3Kα, PI3Kδ, PI3Kβ and PI3Kγ enzymes, substrate (PIP2) and ATP were prepared in buffer. The enzyme reaction system included: buffer, ATP 25 μM, kinase substrate (PIP2, 50 μg/mL), kinases [PI3Kα (0.15 μg/mL), PI3Kδ (1.2 μg/mL), PI3Kβ (0.3 μg/mL) and PI3Kγ (2.5 μg/mL)], etc. The reaction system was reacted at room temperature for 1 hour. The reaction was terminated by adding a termination reagent (ADP-Glo reagent, 5 μL), and the ADP content in the system was detected using a detection reagent (Kinase Detection Reagent, 10 μL). Signal data were collected using the Envision instrument. Calculate the percentage of (%) inhibition according to the following formula: % inhibition=(DMSO control signal value−sample signal value)/(DMSO control signal value−no-kinase control signal value). The IC50 value was obtained by fitting the curve using the formula Y=Bottom+(Top-Bottom)/(1+(IC50/X)^HillSlope).

[2] = target: T1, HDAC10 (Homo sapiens, UniProt Q969S8); experiment: HDAC10 enzyme activity inhibition IC50 evaluation experiment; conditions: HDAC10 10 nM, acetylated peptide 4 μM, 240 min, fluorescence
T1 sequence (Q969S8 1-669): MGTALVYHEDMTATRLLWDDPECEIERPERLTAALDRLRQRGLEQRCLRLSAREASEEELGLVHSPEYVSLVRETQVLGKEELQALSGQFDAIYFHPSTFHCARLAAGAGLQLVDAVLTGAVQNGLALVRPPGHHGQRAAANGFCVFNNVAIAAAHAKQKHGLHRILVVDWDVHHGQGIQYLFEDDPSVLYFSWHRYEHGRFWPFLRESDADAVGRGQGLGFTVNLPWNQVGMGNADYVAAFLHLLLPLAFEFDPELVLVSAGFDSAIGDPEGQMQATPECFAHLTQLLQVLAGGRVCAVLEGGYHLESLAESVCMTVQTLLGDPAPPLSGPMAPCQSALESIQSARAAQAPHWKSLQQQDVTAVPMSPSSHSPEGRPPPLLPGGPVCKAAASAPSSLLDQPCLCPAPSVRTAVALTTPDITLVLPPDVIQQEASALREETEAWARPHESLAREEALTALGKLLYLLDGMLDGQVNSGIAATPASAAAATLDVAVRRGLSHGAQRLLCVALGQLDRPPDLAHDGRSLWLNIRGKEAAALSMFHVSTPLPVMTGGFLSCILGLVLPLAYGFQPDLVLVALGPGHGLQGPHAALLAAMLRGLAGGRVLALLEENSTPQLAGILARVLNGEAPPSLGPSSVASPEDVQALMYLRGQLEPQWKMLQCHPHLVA
Experimental: (§1) Effect Example 3 HDAC8, HDAC10 enzyme activity inhibition IC50 evaluation experiment
(§2) Prepare buffer solution (HDAC8: 50 mM Tris 8.0, 2.7 mM KCl, 137 mM NaCl, 1 mM MgCl2, 1 mg/mL BSA; HDAC10: 50 mM Tris 7.5, 0.01% Tween-20, 50 mM NaCl, 0.05 mg/mL BSA) according to the kit instructions, prepared Enzyme solution, substrate solution (acetylated peptide) by using buffer. The test compound samples were dissolved in DMSO and was added to the screening system at a certain starting concentration such as 10 μM, 3-fold dilution, while setting up the DMSO control and the no-enzyme control. The enzyme reaction system includes: buffer, enzyme [final concentration: HDAC8=10 nM, HDAC10=10 nM], substrate (acetylated peptide) [final concentration: Peptide(HDAC8)=20 μM, Peptide(HDAC10)=4 μM], etc. The enzymes and compounds were reacted at room temperature for 15 minutes. After adding the substrate peptide the reaction system was reacted at room temperature for 240 min. Trypsin solution was added [final concentration: Trypsin=50p M] and incubation continued for 120 min. The fluorescence signal data (excitation wavelength 355 nM/emission wavelength 460 nm) was read with Envision instrument. Calculate the inhibition rate at this concentration based on the relative fluorescence units (RFU). The IC50 value was obtained by fitting a curve using the formula Y=Bottom+(Top-Bottom)/(1+(IC50/X)^HillSlope).

[3] = target: T2, HDAC8 (Homo sapiens, UniProt Q9BY41); experiment: HDAC8 enzyme activity inhibition IC50 evaluation experiment; conditions: HDAC8 10 nM, acetylated peptide 20 μM, 240 min, fluorescence
T2 sequence (Q9BY41 1-377): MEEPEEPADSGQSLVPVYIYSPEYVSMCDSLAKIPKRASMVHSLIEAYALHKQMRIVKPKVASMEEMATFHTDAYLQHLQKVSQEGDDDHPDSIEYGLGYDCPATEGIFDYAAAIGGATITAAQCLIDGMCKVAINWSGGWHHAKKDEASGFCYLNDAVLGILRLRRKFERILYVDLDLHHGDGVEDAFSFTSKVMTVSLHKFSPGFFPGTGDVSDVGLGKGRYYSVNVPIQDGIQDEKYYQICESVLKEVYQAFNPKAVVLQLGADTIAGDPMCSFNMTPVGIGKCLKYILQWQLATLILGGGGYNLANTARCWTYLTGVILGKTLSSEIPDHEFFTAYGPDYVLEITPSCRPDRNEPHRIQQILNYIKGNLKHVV
Experimental: as §1, §2

Sequence of PI3Kδ (O00329 whole entry, species assumed): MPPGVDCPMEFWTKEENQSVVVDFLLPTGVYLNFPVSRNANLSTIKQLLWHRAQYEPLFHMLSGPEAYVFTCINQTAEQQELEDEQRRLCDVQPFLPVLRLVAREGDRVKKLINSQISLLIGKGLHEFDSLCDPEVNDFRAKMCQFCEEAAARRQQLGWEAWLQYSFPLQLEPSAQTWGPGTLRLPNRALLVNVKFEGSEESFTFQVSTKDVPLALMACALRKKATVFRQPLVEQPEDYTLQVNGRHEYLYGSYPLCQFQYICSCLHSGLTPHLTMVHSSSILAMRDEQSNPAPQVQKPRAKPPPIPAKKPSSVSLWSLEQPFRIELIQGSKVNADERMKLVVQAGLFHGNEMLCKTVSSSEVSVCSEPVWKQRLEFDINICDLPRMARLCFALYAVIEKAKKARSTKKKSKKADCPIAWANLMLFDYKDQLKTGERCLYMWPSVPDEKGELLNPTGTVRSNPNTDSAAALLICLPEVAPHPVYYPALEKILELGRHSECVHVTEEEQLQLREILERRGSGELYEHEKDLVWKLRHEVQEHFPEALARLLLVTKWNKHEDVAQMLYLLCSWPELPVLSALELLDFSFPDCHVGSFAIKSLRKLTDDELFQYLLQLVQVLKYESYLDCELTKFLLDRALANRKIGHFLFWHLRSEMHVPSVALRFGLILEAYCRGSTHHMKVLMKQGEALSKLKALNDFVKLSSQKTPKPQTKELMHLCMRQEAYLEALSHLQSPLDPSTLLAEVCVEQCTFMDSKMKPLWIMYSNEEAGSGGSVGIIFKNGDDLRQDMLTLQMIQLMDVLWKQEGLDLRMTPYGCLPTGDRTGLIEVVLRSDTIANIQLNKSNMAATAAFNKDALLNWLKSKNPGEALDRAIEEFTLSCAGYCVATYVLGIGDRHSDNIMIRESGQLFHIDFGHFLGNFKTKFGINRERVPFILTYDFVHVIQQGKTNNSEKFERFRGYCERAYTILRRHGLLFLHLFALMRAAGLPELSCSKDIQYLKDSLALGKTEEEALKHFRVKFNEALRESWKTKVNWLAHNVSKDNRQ
Sequence of PI3Kδ (P27986 whole entry partner, species assumed): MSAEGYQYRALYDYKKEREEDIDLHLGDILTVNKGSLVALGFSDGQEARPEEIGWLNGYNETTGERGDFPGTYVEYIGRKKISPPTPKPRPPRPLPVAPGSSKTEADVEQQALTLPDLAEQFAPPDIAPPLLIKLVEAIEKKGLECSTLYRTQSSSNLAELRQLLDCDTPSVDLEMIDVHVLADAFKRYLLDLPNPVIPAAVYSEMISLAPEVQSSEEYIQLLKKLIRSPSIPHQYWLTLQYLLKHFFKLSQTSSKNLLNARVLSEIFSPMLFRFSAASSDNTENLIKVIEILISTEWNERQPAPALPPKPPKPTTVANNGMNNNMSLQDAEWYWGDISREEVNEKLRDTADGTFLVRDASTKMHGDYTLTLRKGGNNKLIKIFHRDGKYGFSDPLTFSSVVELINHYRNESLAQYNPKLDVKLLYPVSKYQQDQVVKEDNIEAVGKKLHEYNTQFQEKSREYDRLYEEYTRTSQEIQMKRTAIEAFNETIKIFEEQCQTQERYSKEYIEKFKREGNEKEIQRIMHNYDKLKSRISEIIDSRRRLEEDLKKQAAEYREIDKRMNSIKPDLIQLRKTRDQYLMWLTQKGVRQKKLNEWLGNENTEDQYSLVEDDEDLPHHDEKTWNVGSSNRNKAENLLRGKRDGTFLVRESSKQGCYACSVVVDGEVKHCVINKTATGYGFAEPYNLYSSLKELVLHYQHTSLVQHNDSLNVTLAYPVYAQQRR

Row | Compound | IC50 [1] | IC50 [2] | IC50 [3]
1 | COc1ncc(-c2nc(N3CCOCC3)nc3c(OCCCCCCC(=O)NO)cc(F)cc23)cc1NS(C)(=O)=O [Compound 9] | 10 to 100 nM | 100 to 1000 nM | –
2 | COc1ncc(-c2nc(N3CCOCC3)nc3c(OC4CCN(c5ncc(C(=O)NO)cc5F)CC4)cc(F)cc23)cc1NS(C)(=O)=O [Compound 30] | 10 to 100 nM | 100 to 1000 nM | 100 to 1000 nM
3 | COc1ncc(-c2nc(N3CCOCC3)nc3c(CN4CCN(c5ncc(C(=O)NO)cn5)CC4)cc(F)cc23)cc1NS(C)(=O)=O [Compound 7] | ≤ 10 nM | 100 to 1000 nM | –

The remaining lines, values ahead:

Row | IC50 [1] | IC50 [2] | IC50 [3] | Compound
4 | ≤ 10 nM | – | 1000 to 10000 nM | COc1ncc(-c2nc(N3CCOCC3)nc3c(OC4CCN(c5ccc(C(=O)NO)cn5)CC4)cc(F)cc23)cc1NS(C)(=O)=O [Compound 40]
5 | ≤ 10 nM | 10 to 100 nM | 100 to 1000 nM | COc1ncc(-c2nc(N3CCOCC3)nc3c(OC4CCN(c5ncc(C(=O)NO)cn5)CC4)cc(F)cc23)cc1NS(C)(=O)=O [Compound 39]

Source: patent publication US20240217947A1, “Morpholinylquinazoline Compound, Pharmaceutical compositions thereof and Use Thereof” (SHANGHAI YINGLI PHARMACEUTICAL CO., LTD, priority 2022, published 2024)
